Experimental data taken from PubChem BioAssay AID330 (DTP/NCI, 2004).
Where “and” joins values, the source holds several entries; their conditions need not be identical. Identical values can stand only once. Toxic doses and inconclusive results are not listed. Rule for the calls: active = survival T/C of 150% or more; inactive = T/C below 125% in these data.

Test system: P388 leukemia ip, CD2F1 mice, survival T/C
Assay: NCI In Vivo Anticancer Drug Screen. Data for tumor model P388 Leukemia (intraperitoneal) in CD2F1 (CDF1) mice
Conditions: endpoint: median survival time, higher = longer survival
How it was run: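 Mice carrying the transplanted tumor received test compound or vehicle. Survival was recorded in each group, and the value is the treated-group measurement divided by that of the vehicle-treated control group.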

[1] = dose: 25.0 mg/kg/injection, schedule: Q01DX009 (ip), vehicle: saline with Tween-80
[2] = dose: 25.0 mg/kg/injection, schedule: Q01DX009 (ip), vehicle: Klucel (hydroxypropylcellulose) (HPC)
[3] = dose: 50.0 mg/kg/injection, schedule: Q01DX009 (ip), vehicle: Klucel (hydroxypropylcellulose) (HPC)
[4] = dose: 100.0 mg/kg/injection, schedule: Q01DX009 (ip), vehicle: Klucel (hydroxypropylcellulose) (HPC)
[5] = dose: 12.5 mg/kg/injection, schedule: Q01DX005 (ip), vehicle: Klucel (hydroxypropylcellulose) (HPC)
[6] = dose: 25.0 mg/kg/injection, schedule: Q01DX005 (ip), vehicle: Klucel (hydroxypropylcellulose) (HPC)
[7] = dose: 50.0 mg/kg/injection, schedule: Q01DX005 (ip), vehicle: Klucel (hydroxypropylcellulose) (HPC)
[8] = dose: 100.0 mg/kg/injection, schedule: Q01DX005 (ip), vehicle: Klucel (hydroxypropylcellulose) (HPC)
[9] = dose: 200.0 mg/kg/injection, schedule: Q01DX005 (ip), vehicle: Klucel (hydroxypropylcellulose) (HPC)
[10] = dose: 100.0 mg/kg/injection, schedule: Q04DX003 (ip), vehicle: Klucel (hydroxypropylcellulose) (HPC)
[11] = dose: 200.0 mg/kg/injection, schedule: Q04DX003 (ip), vehicle: Klucel (hydroxypropylcellulose) (HPC)
[12] = dose: 400.0 mg/kg/injection, schedule: Q04DX003 (ip), vehicle: Klucel (hydroxypropylcellulose) (HPC)

Measured: T/C

CC1(C)COCN1CN1COCC1(C)C
inactive: dose: 0.78 mg/kg/injection, schedule: Q04DX003 (ip), vehicle: saline 100 % of control | dose: 1.56 mg/kg/injection, schedule: Q04DX003 (ip), vehicle: saline 101 % of control | dose: 3.13 mg/kg/injection, schedule: Q04DX003 (ip), vehicle: saline 100 % of control | dose: 12.5 mg/kg/injection, schedule: Q04DX003 (ip), vehicle: saline 111 % of control | dose: 25.0 mg/kg/injection, schedule: Q04DX003 (ip), vehicle: saline 102 % of control | dose: 50.0 mg/kg/injection, schedule: Q04DX003 (ip), vehicle: saline 120 % of control | dose: 100.0 mg/kg/injection, schedule: Q04DX003 (ip), vehicle: saline 123 % of control | dose: 200.0 mg/kg/injection, schedule: Q04DX003 (ip), vehicle: saline 107 % of control

CSC(=S)N/N=C/c1ccccc1O
inactive: dose: 6.25 mg/kg/injection, schedule: Q01DX009 (ip), vehicle: saline with Tween-80 90 % of control | dose: 12.5 mg/kg/injection, schedule: Q01DX009 (ip), vehicle: saline with Tween-80 90 % of control | [1] 95 % of control

CC/C=c1/[nH]c(=O)/c(=C\c2ccc([N+](=O)[O-])cc2)[nH]c1=O
inactive: [2] 90 % of control | [3] 87 % of control and 91 % of control | [4] 86 % of control | dose: 200.0 mg/kg/injection, schedule: Q01DX009 (ip), vehicle: Klucel (hydroxypropylcellulose) (HPC) 94 % of control

CCOC(=O)c1ccc(NC(=O)Nc2nc3ccccc3s2)cc1
inactive: dose: 25.0 mg/kg/injection, schedule: Q01DX009 (ip), vehicle: distilled water + Tween-80 97 % of control | dose: 50.0 mg/kg/injection, schedule: Q01DX009 (ip), vehicle: distilled water + Tween-80 97 % of control | dose: 100.0 mg/kg/injection, schedule: Q01DX009 (ip), vehicle: distilled water + Tween-80 90 % of control | dose: 200.0 mg/kg/injection, schedule: Q01DX009 (ip), vehicle: distilled water + Tween-80 90 % of control | dose: 400.0 mg/kg/injection, schedule: Q01DX009 (ip), vehicle: distilled water + Tween-80 90 % of control

O=C(NC(=S)Nc1c(Cl)cccc1Cl)c1cccc(Cl)c1
inactive: [5] 106 % of control | [6] 92 % of control | [7] 94 % of control

O=C1NC(=O)c2ccc3c4ccc5c6c(ccc(c7ccc1c2c73)c64)C(=O)N(c1ccccc1)C5=O
inactive: dose: 6.25 mg/kg/injection, schedule: Q01DX005 (ip), vehicle: Klucel (hydroxypropylcellulose) (HPC) 99 % of control | [5] 101 % of control and 94 % of control | [6] 107 % of control | [7] 93 % of control | [8] 95 % of control | [9] 88 % of control

CCn1c2ccccc2c2cc(N=Nc3cc(C(C)C)c(O)cc3C)ccc21
inactive: dose: 100.0 mg/kg/injection, schedule: Q04DX003 (ip), vehicle: saline with Tween-80 93 % of control | dose: 200.0 mg/kg/injection, schedule: Q04DX003 (ip), vehicle: saline with Tween-80 102 % of control | dose: 400.0 mg/kg/injection, schedule: Q04DX003 (ip), vehicle: saline with Tween-80 102 % of control

CC(C)(C)OP(=O)(NN)OC(C)(C)C
inactive: dose: 50.0 mg/kg/injection, schedule: Q01DX009 (ip), vehicle: saline 101 % of control | dose: 100.0 mg/kg/injection, schedule: Q01DX009 (ip), vehicle: saline 108 % of control | dose: 200.0 mg/kg/injection, schedule: Q01DX009 (ip), vehicle: saline 99 % of control

CC(C)C12C=CC(C)(CC1)OO2 (centres undefined)
inactive: [1] 104 % of control | dose: 50.0 mg/kg/injection, schedule: Q01DX009 (ip), vehicle: saline with Tween-80 100 % of control and 102 % of control

COc1ccc2c(C)cc(N/N=C(\C)c3cn(C)n(-c4ccccc4)c3=O)nc2c1
inactive: [5] 98 % of control | [6] 95 % of control | [7] 101 % of control and 93 % of control | [8] 110 % of control

OC(CCl)c1ccc2ccc3c(c2c1)Nc1ccccc1S3 (centres undefined)
inactive: [10] 107 % of control | [11] 104 % of control | [12] 102 % of control

Cc1ccc(NC(=S)C#N)cc1Cl
inactive: dose: 6.25 mg/kg/injection, schedule: Q01DX005 (ip), vehicle: saline with Tween-80 90 % of control | dose: 12.5 mg/kg/injection, schedule: Q01DX005 (ip), vehicle: saline with Tween-80 92 % of control | dose: 25.0 mg/kg/injection, schedule: Q01DX005 (ip), vehicle: saline with Tween-80 90 % of control

COc1ccc2cc3ccncc3cc2c1OC
inactive: dose: 12.5 mg/kg/injection, schedule: Q01DX009 (ip), vehicle: water 96 % of control | dose: 25.0 mg/kg/injection, schedule: Q01DX009 (ip), vehicle: water 99 % of control | dose: 50.0 mg/kg/injection, schedule: Q01DX009 (ip), vehicle: water 99 % of control | dose: 100.0 mg/kg/injection, schedule: Q01DX009 (ip), vehicle: water 97 % of control | dose: 200.0 mg/kg/injection, schedule: Q01DX009 (ip), vehicle: water 105 % of control

Nc1cccc(CCCCc2cccc(S(=O)(=O)F)c2)c1
inactive: dose: 50.0 mg/kg/injection, schedule: Q01DX009 (ip), vehicle: saline sonified 100 % of control | dose: 100.0 mg/kg/injection, schedule: Q01DX009 (ip), vehicle: saline sonified 109 % of control | dose: 200.0 mg/kg/injection, schedule: Q01DX009 (ip), vehicle: saline sonified 109 % of control

Nc1nc2ncc(CCNc3ccc(C(=O)NC(CCC(=O)O)C(=O)O)cc3)nc2c(=O)[nH]1 (centres undefined)
inactive: dose: 12.5 mg/kg/injection, schedule: Q01DX009 (ip), vehicle: Klucel (hydroxypropylcellulose) (HPC) 98 % of control | [2] 103 % of control | [3] 107 % of control | [4] 93 % of control

N#Cc1c(=O)[nH]nc2c3ccccc3c3ccccc3c12
inactive: dose: 100.0 mg/kg/injection, schedule: Q04DX002 (ip), vehicle: saline with Tween-80 92 % of control | dose: 200.0 mg/kg/injection, schedule: Q04DX002 (ip), vehicle: saline with Tween-80 95 % of control | dose: 400.0 mg/kg/injection, schedule: Q04DX002 (ip), vehicle: saline with Tween-80 96 % of control

CONC(=O)N/N=C\c1c(CO)cnc(C)c1O
inactive: dose: 7.5 mg/kg/injection, schedule: Q01DX005 (ip), vehicle: Klucel (hydroxypropylcellulose) (HPC) 105 % of control | dose: 15.0 mg/kg/injection, schedule: Q01DX005 (ip), vehicle: Klucel (hydroxypropylcellulose) (HPC) 102 % of control | dose: 30.0 mg/kg/injection, schedule: Q01DX005 (ip), vehicle: Klucel (hydroxypropylcellulose) (HPC) 102 % of control

CNC(C#N)C(C)F (centres undefined)
inactive: dose: 15.0 mg/kg/injection, schedule: Q01DX005 (ip), vehicle: saline 98 % of control | dose: 30.0 mg/kg/injection, schedule: Q01DX005 (ip), vehicle: saline 99 % of control | dose: 60.0 mg/kg/injection, schedule: Q01DX005 (ip), vehicle: saline 99 % of control and 98 % of control

OC(CCl)Cn1nc2ccccc2n1 (centres undefined)
inactive: [7] 96 % of control | [8] 105 % of control | [10] 99 % of control | [9] 103 % of control | [11] 99 % of control | [12] 93 % of control
